Reference: PMC9312238, “Novel Organoselenium Redox Modulators with Potential Anticancer, Antimicrobial, and Antioxidant Activities” (Antioxidants, 2022)
Converted amounts (≈) assume the structure as drawn.

Legend:
[1] = tested on: Candida albicans; assay: microbe, parasite or virus in culture; format: cell-based; parameters: C. albicans A% (activity index): concentration or dose not given beside the values
Experimental: (§1) The antimicrobial activities of the OSe compounds were evaluated against C. albicans yeast, as well as E. coli and S. bacteria, employing the agar well diffusion assay. Furthermore, the MICs (in µM) were determined by the microdilution method according to the reported protocol. More details are in the Supporting Information.
Compounds were evaluated for their antimicrobial activity against the Gram-negative bacteria Escherichia coli (E. coli) and the Gram-positive bacteria Staphylococcus aureus (S. aureus), as well as the Candida albicans (C. albicans) fungal strain, using the agar diffusion assay. Ampicillin and clotrimazole were used as standards. Indeed, the antimicrobial properties of the OSe compounds were also obtained from the activity index percentage (A%) according to Equation (2). (2) A%=Zone of inhibition by test compound diametre/Zone of inhibition by standard diametre×100 . […]
(§2) 1.1.1. The antimicrobial activity
The antimicrobial activities of the OSe compounds were evaluated against C. albicans yeast as well as E. coli gram-negative and S. aureus gram-positive bacteria employing the agar well diffusion assay. […]
compound by dissolving in DMSO. […]
Petri dishes, which in turn contain a nutrient media (agar 20 g, peptone 5 g, and beef extract 3 g) seeded with the dedicated strain. Incubation lasted for 24 h at 36
(§3) Furthermore, the MICs (in µM) were determined by the microdilution method according to the reported protocol. […]
(§4) Inhibition%= (Ablank-Asample)/(Ablank)*100. (1)

[2] = tested on: Candida albicans; assay: MIC by microdilution, C. albicans; format: cell-based; details: Candida albicans; microdilution; read-out: MIC (μM) C. albicans
Experimental: as §1, with “Information. […]” for “Information.”
as §2
The antimicrobial activities of the OSe compounds were evaluated against C. albicans yeast as well as E. coli gram-negative and S. aureus gram-positive bacteria employing the agar well diffusion assay. Briefly, a concentration of 1 mM was prepared for each compound by dissolving in DMSO. Paper discs of standard size […] were steri-lized in an autoclave and soaked in 20 µL of the test compounds, and placed in the Petri dishes, which in turn contain a nutrient media (agar 20 g, peptone 5 g, and beef extract 3 g) seeded with the dedicated strain. Incubation lasted for 24 h at 36
as §3, §4

[3] = ABTS radical scavenging bioassay; format: biochemical
From the text: (§5) The antioxidant activity was estimated by ABTS and DPPH bioassays, according to the reported literature method. More details are in the Supplementary Materials.
(§6) Recently, OSe compounds were thoroughly used as redox modulators to control many complicated diseases (e.g., cancer and neurodegenerative diseases). The DPPH and ABTS bioassays were extensively used as rapid tools for estimating the antioxidant potency of OSe compounds [50, 51]. Ascorbic acid was used as a standard control, and the antioxidant potency was measured by the ability of the compounds to decolorize the characteristic colors of the ABTS^. and DPPH^. radicals by following the colorimetric decline in absorbance at 734 and 517 nm, respectively (Figure 2).
(§7) Figure 2 Evaluation of the antioxidant properties of the OSe compounds employing the ABTS and DPPH assays. All measurements are mean ± SD. In the DPPH assay: absorbance was read after 0.5 h of mixing […] of DPPH with […] of OSe compounds (1 mM, MeOH) at 517 nm. In the ABTS assay: […] of each OSe compound (1 mM, phosphate-buffered methanol) was mixed with the ABTS solution (60 mM), and absorbance was monitored at 734 nm.
The antioxidant activity of the investigated compounds was assessed using 2,2’-az-ino-bis(3-ethylbenzothiazoline-6-sulphonic acid (ABTS) method. The radical cation derived from ABTS was prepared by the reaction of 60 mM ABTS solution with 0.3 M manganese dioxide solution in 0.1M phosphate buffer, pH 7. Then, the mixture was shaken, centrifuged, filtered, and the absorbance (Acontrol) of the resulting green-blue solu-tion (ABTS radical solution) was measured at wavelength 734 nm. Then, […] of 1 mg/ml test compound in phosphate-buffered methanol was added. The absorbance (Atest) was measured. The reduction in color intensity was expressed as % inhibition. The % inhibi-tion for each compound is calculated from the following equation
Inhibition% = (Acontrol-Asample)/(Acontrol)*100
Ascorbic acid (vitamin C) was used as a standard antioxidant (positive control). A blank sample was run without ABTS and using MeOH/phosphate buffer (1:1) instead of the sample. A negative control sample was run with MeOH/phosphate buffer (1:1) instead

[4] = DPPH radical scavenging bioassay; format: biochemical
From the text: as §5, §6
as §7, with “734 nm. […]” for “734 nm.”
1.1.1. The antioxidant activity
The hydrogen atom or electron donation ability of the corresponding compounds was measured by estimating the bleaching of the purple color of a methanolic solution of DPPH [29]. This spectrophotometric assay uses stable DPPH. reagent. The sample was prepared by adding […] of the OSe compounds (1 mM in methanol) to […] DPPH in methanol. After 30 min of incubation in the dark, the absorbance was read against a blank at 517 nm. Ascorbic acid (vitamin C) and ebselen were used as standard antioxi-dants (positive control). A blank sample was run without DPPH. A negative control sam-ple was run using methanol instead of the sample. The radical scavenging activity was calculated using the following equation:
as §4

[5] = concentration decreasing absorbance by 50%

## Clc1ccccc1C(c1ccccc1)(c1ccccc1)n1ccnc1 [Clotrimazole, clotrimazole, reference compound]
[1]; Candida albicans, inhibition zone diameter, six-mm disks soaked with 20 μM of compound, read-out: C. albicans IZD (mm)
  zone of inhibition at 20 µM: 24 mm
[1]; zone of test compound / zone of standard (clotrimazole) x 100
  C. albicans A% (activity index): 100%
[2]
  MIC: 2 µM (≈ 0.69 µg/mL)

## O=C1O[C@H]([C@@H](O)CO)C(O)=C1O [Vitamin C, Ascorbic acid, reference compound]
[3]; compound 1 mM in phosphate-buffered methanol, 734 nm
  radical scavenging activity, ABTS assay: 88%
[3]; [5]
  IC50: 28.16 ± 0.19 µM
[4]; compound 1 mM in MeOH, read after 0.5 h at 517 nm
  radical scavenging activity, DPPH assay: 95%
[4]; [5]
  IC50: 19.18 ± 0.13 µM
